Where a name gives a salt, the structure may show the parent alone.
The compounds below were run against GABAa receptor (assay: GABAa receptor activity: inhibition of 3H-RO15-1788 (3H-Flumazenil) binding to rat cortical tissue). Conditions: 0.5 nM 3H-RO15-1788, 30 min at 4° C.
Experimental: The pharmaceutical utility of compounds of this invention are indicated by the following assay for GABAa receptor activity.
The assay is carried out as described in Thomas and Tallman (J. Bio. Chem. 156: 9838-9842, J. Neurosci. 3:433-440, 1983). Rat cortical tissue is dissected and homogenized in 25 volumes (w/v of 0.05M Tris HCl buffer (pH 7.4 at 4° C.). The tissue homogenate is centrifuged in the cold (4° C.) at 20,000×g for 20 minutes. The supernatant is decanted and the pellet is rehomogenized in the same volume of buffer and again centrifuged at 20,000×g. The supernatant is decanted and the pellet is frozen at -20° C. overnight. The pellet is then thawed and rehomogenized in 25 volume (original w/v) of buffer and the procedure is carried out twice. The pellet is finally resuspended in 50 volumes (w/v) of 0.05M Tris HCl buffer (pH 7.4 at […]).
Incubation contain 100 of tissue homogenate, […] of radioligand (0.5 nM ^3 H-RO15-1788 [^3 H-Flumazenil] specific activity 80 Ci/mmol), drug or blocker and buffer to a total volume of […]. Incubstion are carried for 30 min at 4° C. then are rapidly filtered through GFB filters to separate free and bound ligand. Filters are washed twice with fresh 0.05M Tris HCl buffer (pH 7.4 at 4° C.) and counted in a liquid scintillation counter. 1.0 mM diazepam is added to some tubes to determine nonspecific binding. Data are collected in triplicate determinations, averaged and % inhibition of total specific binding is calculated. Total Specific Binding=Total-Nonspecific. In some case, the amounts of unlabeled drugs is varied and total displacement curves of binding are carried. Data are converted to a form for the calculation of Ki and Hill Coefficient (nH).
COc1ccc(-c2ncc3n2CN(C(=O)N2CCCCC2)c2ccccc2-3)cc1 [Compound 1, 3-(4-methoxyphenyl)-5,6-dihydro-6-[(1-piperidino)carbonyl]imidazo[1,5-c]quinazoline] gave a Ki of 6 nM.
With COc1ccc(-c2ncc3n2CN(C(=O)N(C)C)c2ccccc2-3)cc1 [Compound 2, 3-(4-Methoxyphenyl)-5,6-dihydro-6-[(N,N-dimethyl-amino)carbonyl]imidazo[1,5-c]quinazoline hydrochloride] the Ki was 4.7 nM.
Work on COc1ccc(-c2ncc3n2CN(C(=O)N2CCOCC2)c2ccccc2-3)cc1 [Compound 3, 3-(4-Methoxyphenyl)-5,6-dihydro-6-[(1-morpholino)-carbonyl]imidazo[1,5-c]quinazoline hydrochloride] yielded a Ki of 2.7 nM.
In the case of COc1cccc(-c2ncc3n2CN(C(=O)N2CCCCC2)c2ccccc2-3)c1 [Compound 16, 3-(3-Methoxyphenyl)-5,6-dihydro-6-[(1-piperidino)-carbonyl]imidazo[1,5-]quinazoline hydrochloride], the Ki is reported as 17 nM.
Compound O=C(N1CCCCCC1)N1Cn2c(cnc2-c2ccccc2)-c2ccccc21 [Compound 18, 3-Phenyl-5,6-dihydro-6-[(1-hexamethyleneimino)-carbonyl]imidazo[1,5-c]quinazoline hydrochloride] has a Ki of 12 nM.
With COc1ccc(-c2ncc3n2CN(C(C)=O)c2ccccc2-3)cc1 [Compound 49, 3-(4-methoxyphenyl)-5,6-dihydro-6-acetylimidazo[1,5-c]-quinazoline] the Ki was 101 nM.
Work on COc1ccc(-c2ncc3n2CN(C(=O)c2ccccc2)c2ccccc2-3)cc1 [Compound 53, 3-(4-Methoxyphenyl)-5,6-dihydro-6-benzoylimidazo-[1,5-c]quinazoline] yielded a Ki of 7.8 nM.
Compound COc1ccc(-c2ncc3n2CN(C(=O)c2ccccc2)c2ccccc2-3)c(F)c1 [Compound 72, 3-(2-Fluoro-4-methoxyphenyl)-5,6-dihydro-6-benzoyl-imidazo[1,5-c]quinazoline] has a Ki of 9.7 nM.
For CCn1c(=O)n2c(-c3ccccc3F)ncc2c2ccccc21 [Compound 76, 3-(2-Fluorophenyl)-5,6-dihydro-5-oxo-6-ethyl-imidazo[1,5-c]quinazoline], the Ki was 124 nM.

Source: US5792766A (priority 1996, dated 1998)
